The text below walks through data of ChEMBL document CHEMBL5131471, “Design, synthesis and mechanism studies of novel dual PARP1/BRD4 inhibitors against pancreatic cancer” (Eur J Med Chem, 2022).

Active and inactive are the calls of the source. The rule behind the calls is not given here.

Series [1] in a line: Toxicity in nude mouse xenografted with human SW1990 cells assessed as heart damage at 15 mg/kg, ip administered for 28 days by H and E staining based fluorescence microscopic analysis. The class given is organism-based. As to conditions: in vivo, 672 h, time 28 day. On the technique in general: In xenograft studies the graft and the host belong to different species.
Series [2] can be described thus: Toxicity in nude mouse xenografted with human SW1990 cells assessed as liver damage at 15 mg/kg, ip administered for 28 days in presence of 45 mg/kg Olaparib by H and E staining based fluorescence microscopic analysis. The class given is organism-based. As to conditions: in vivo, 672 h, time 28 day.
A short description of series [3]: Toxicity in nude mouse xenografted with human SW1990 cells assessed as lung damage at 15 mg/kg, ip administered for 28 days in presence of 45 mg/kg Olaparib by H and E staining based fluorescence microscopic analysis. The class given is organism-based. As to conditions: in vivo, 672 h, time 28 day.
Series [4] concerns SW1990. Nature of the series: Induction of cell cycle arrest in human SW1990 cells assessed as accumulation of cells at G2/M phase at 1 uM incubated for 4 days in presence of 3 uM Olaparib by propidium iodide staining based flow cytometry (reference value: 5.89%). The class given is functional. As to conditions: time 4 day. A general note: A flow cytometer gives signals particle by particle.

The test system of series [5] is SW1990. Nature of the series: Induction of DNA damage in human SW1990 cells assessed as increase in tail DNA at 4 uM incubated for 4 days by comet assay. As to conditions: time 4.0 day. The class given is functional, cell-based.
Series [6] deals with SW1990. Nature of the series: Effect on CDK1 gene expression in human SW1990 cells at 4 uM by Q-PCR analysis. The class given is functional, cell-based.
For series [7], the system named is SW1990. Briefly: Effect on CDC25A gene expression in human SW1990 cells at 1 uM in presence of Olaparib by Q-PCR analysis. The class given is functional, cell-based.
Series [8] concerns SW1990. Nature of the series: Effect on CCNB1 gene expression in human SW1990 cells at 1 uM in presence of Olaparib by Q-PCR analysis. The class given is functional, cell-based.
The test system of series [9] is SW1990. Nature of the series: Effect on CDK1 to 2 gene expression in human SW1990 cells at 1 uM in presence of Olaparib by Q-PCR analysis. The class given is functional, cell-based.
For series [10], the system named is SW1990. Briefly: Effect on HEXIM1 gene expression in human SW1990 cells at 1 uM in presence of Olaparib by Q-PCR analysis. The class given is functional, cell-based.
In series [11] the test system is SW1990. Briefly: Downregulation of Ki67 expression in human SW1990 cells at 15 mg/kg, ip in presence of 45 mg/kg, ip Olaparib measured after 28 days by immuno histochemical staining based fluorescence microscopic analysis. The class given is functional, organism-based. As to conditions: time 28.0 day.
For series [12], the target named is Poly [ADP-ribose] polymerase 1 (Homo sapiens, UniProt P09874). Briefly: Inhibition of PARP1 (unknown origin) using biotinylated NAD+ as substrate by microplate reader method.
The next series concerns CAPAN-1. Nature of the series: Antiproliferative activity against human CAPAN-1 cells assessed as inhibition of cell growth measured after 4 days by MTT assay. The class given is functional, cell-based. As to conditions: CAPAN-1, 96 h. Background: Formazan colour is commonly taken as a measure of viable cells.
A short description of series [13]: Toxicity in nude mouse xenografted with human SW1990 cells assessed as liver damage at 30 mg/kg, ip administered for 28 days by H and E staining based fluorescence microscopic analysis. The class given is organism-based. As to conditions: in vivo, 672 h, time 28 day.
Series [14] is described as follows: Toxicity in nude mouse xenografted with human SW1990 cells assessed as lung damage at 30 mg/kg, ip administered for 28 days by H and E staining based fluorescence microscopic analysis. As to conditions: in vivo, 672 h, time 28 day. The class given is organism-based.
Series [15] deals with Mus musculus. Nature of the series: Inhibition of BRD4 expression in nude mouse xenografted with human SW1900 cells at 30 mg/kg, ip administered for 28 days by DAPI staining based laser confocal microscopic analysis. The class given is functional, organism-based. As to conditions: time 28.0 day.
Series [16] has as its system SW1990. Briefly: Induction of apoptosis in human SW1990 cells assessed as late apoptotic cells at 1 uM measured after 4 days by Annexin V-FITC and propidium iodide staining based flow cytometry (reference value: 7.23%). As to conditions: time 4 day. The class given is functional.
For series [17], the system named is SW1990. Nature of the series: Induction of apoptosis in human SW1990 cells assessed as necrotic cells at 2 uM measured after 4 days by Annexin V-FITC and propidium iodide staining based flow cytometry (reference value: 2.45%). The class given is functional. As to conditions: time 4 day.
Series [18] deals with SW1990. Briefly: Induction of cell cycle arrest in human SW1990 cells assessed as accumulation of cells at S phase at 1 uM incubated for 4 days by propidium iodide staining based flow cytometry (reference value: 29.32%). The class given is functional. As to conditions: time 4 day.
The test system of series [19] is SW1990. Briefly: Inhibition of homologous recombinant repair in human SW1990 cells assessed as reversal of Olaparib-induced FOXM1 expression at 1 to 2 uM after 4 days by Western blot analysis. The class given is functional, cell-based. As to conditions: dose 1-2 µM, time 4.0 day.
Series [20] deals with Mus musculus. Briefly: Inhibition of homologous recombinant repair in nude mouse xenografted with human SW1990 cells assessed as reversal of olaparib-induced BRCA2 expression at 30 mg/kg, ip after 4 days by Western blot analysis. The class given is functional, organism-based. As to conditions: time 4.0 day.
In series [21] the test system is Mus musculus. Nature of the series: Inhibition of homologous recombinant repair in nude mouse xenografted with human SW1990 cells assessed as reversal of olaparib-induced HEXIM1 expression at 30 mg/kg, ip measured after 4 days by Western blot analysis. The class given is functional, organism-based. As to conditions: time 4.0 day.
For series [22], the system named is Mus musculus. Nature of the series: Induction of DNA damage in human SW1990 cells xenografted in nude mouse assessed as increase in gammaH2AX at 30 mg/kg, ip by immunohistochemical analysis. The class given is functional, organism-based.
For series [23], the system named is SW1990. Nature of the series: Effect on CDC25A gene expression in human SW1990 cells at 1 to 2 uM by Q-PCR analysis. As to conditions: dose 1-2 µM. The class given is functional, cell-based.
In series [24] the test system is SW1990. Briefly: Effect on TOPBP1 gene expression in human SW1990 cells at 1 to 2 uM by Q-PCR analysis. As to conditions: dose 1-2 µM. The class given is functional, cell-based.
In series [25] the test system is SW1990. Briefly: Effect on ALDH1A1 gene expression in human SW1990 cells at 1 to 2 uM by Q-PCR analysis. As to conditions: dose 1-2 µM. The class given is functional, cell-based.
Series [26] concerns SW1990. Briefly: Effect on MDC1 gene expression in human SW1990 cells at 1 to 2 uM by Q-PCR analysis. As to conditions: dose 1-2 µM. The class given is functional, cell-based.
In series [27] the test system is Mus musculus. Nature of the series: Inhibition of homologous recombinant repair in nude mouse xenografted with human SW1990 cells assessed as reversal of olaparib-induced FOXO1 expression at 30 mg/kg, ip measured after 4 days by Western blot analysis. The class given is functional, organism-based. As to conditions: time 4.0 day.
Series [28] has as its system SW1990. Briefly: Upregulation of PARP1 expression in human SW1990 cells at 6 uM measured after 4 days by Western blot analysis. The class given is functional, cell-based. As to conditions: time 4.0 day.
The test system of series [29] is Mus musculus. Nature of the series: Upregulation of CCNB1 expression in nude mouse xenografted with human SW1990 cells at 45 mg/kg, ip measured after 4 days by Q-PCR analysis. As to conditions: time 4.0 day. The class given is functional, organism-based.
Series [30] has as its system Mus musculus. Nature of the series: Upregulation of CDK1 expression in nude mouse xenografted with human SW1990 cells at 45 mg/kg, ip measured after 4 days by Q-PCR analysis. The class given is functional, organism-based. As to conditions: time 4.0 day.
Series [31] has as its system Mus musculus. Nature of the series: Upregulation of CDK1 expression in nude mouse xenografted with human SW1990 cells at 45 mg/kg, ip measured after 4 days by Western blot analysis. The class given is functional, organism-based. As to conditions: time 4.0 day.
Series [32] concerns SW1990. Briefly: Effect on CDC25B gene expression in human SW1990 cells at 6 uM by Q-PCR analysis. The class given is functional, cell-based.
Series [33] has as its system SW1990. Nature of the series: Effect on CCNB1 gene expression in human SW1990 cells at 6 uM by Q-PCR analysis. The class given is functional, cell-based.
Series [34] has as its system SW1990. Nature of the series: Upregulation of BRCA2 expression in human SW1990 cells at 6 uM measured after 4 days by Western blot analysis. The class given is functional, cell-based. As to conditions: time 4.0 day.
For series [35], the system named is SW1990. Briefly: Upregulation of Rad51 expression in human SW1990 cells at 6 uM measured after 4 days by Western blot analysis. The class given is functional, cell-based. As to conditions: time 4.0 day.
For series [36], the system named is Mus musculus. Nature of the series: Upregulation of BRD4 expression in nude mouse xenografted with human SW1990 cells at 45 mg/kg, ip measured after 28 days by DAPI staining based laser confocal microscopic analysis. The class given is functional, organism-based. As to conditions: time 28.0 day.

The term IC50 denotes the concentration that gives 50% inhibition.

Poly [ADP-ribose] polymerase 1, sequence (P09874 whole entry): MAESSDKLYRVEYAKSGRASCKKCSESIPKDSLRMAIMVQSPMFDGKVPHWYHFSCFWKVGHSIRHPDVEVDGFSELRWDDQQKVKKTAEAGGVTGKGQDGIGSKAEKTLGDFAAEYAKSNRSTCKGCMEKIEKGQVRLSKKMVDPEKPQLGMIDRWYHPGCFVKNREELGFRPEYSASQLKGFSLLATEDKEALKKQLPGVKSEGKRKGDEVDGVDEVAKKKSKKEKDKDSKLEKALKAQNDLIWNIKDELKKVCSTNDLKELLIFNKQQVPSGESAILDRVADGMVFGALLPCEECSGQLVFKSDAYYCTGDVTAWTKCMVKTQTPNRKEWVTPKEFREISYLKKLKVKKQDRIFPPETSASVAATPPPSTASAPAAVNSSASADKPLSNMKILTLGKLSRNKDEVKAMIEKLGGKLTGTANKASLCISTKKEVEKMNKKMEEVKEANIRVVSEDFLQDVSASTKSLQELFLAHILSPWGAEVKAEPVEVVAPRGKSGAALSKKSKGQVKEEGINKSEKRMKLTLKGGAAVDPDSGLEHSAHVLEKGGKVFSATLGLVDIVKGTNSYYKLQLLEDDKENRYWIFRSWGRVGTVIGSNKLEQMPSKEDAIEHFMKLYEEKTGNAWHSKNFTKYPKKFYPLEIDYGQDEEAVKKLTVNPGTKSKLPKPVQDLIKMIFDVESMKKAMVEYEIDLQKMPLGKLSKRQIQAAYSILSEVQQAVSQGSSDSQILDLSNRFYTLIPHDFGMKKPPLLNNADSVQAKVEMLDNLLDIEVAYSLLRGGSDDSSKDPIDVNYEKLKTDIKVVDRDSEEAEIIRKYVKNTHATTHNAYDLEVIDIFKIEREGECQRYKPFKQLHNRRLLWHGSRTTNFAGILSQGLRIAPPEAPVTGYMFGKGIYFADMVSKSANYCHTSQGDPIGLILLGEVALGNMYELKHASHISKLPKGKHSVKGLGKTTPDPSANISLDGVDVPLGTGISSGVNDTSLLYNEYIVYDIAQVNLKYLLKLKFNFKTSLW

With `Cc1sc2c(c1C)C(c1ccc(Cl)cc1)=N[C@@H](CC(=O)OC(C)(C)C)c1nnc(C)n1-2`, the Activity result in [1] is “Non-Toxic”; in series [2], “Non-Toxic”; in [3] it was “Non-Toxic”; with SW1990 [4] it was 9.14%. In addition, the result in the series on SW1990 [5], in the series with SW1990 [6], with SW1990 [7], in the series on SW1990 [8], with SW1990 [9] and in the series with SW1990 [10] was Active. In addition, in the series on SW1990 [11], the result was Active.

On to `Cc1noc(C)c1-c1ccc2c(c1)C(c1ccccc1)N(Cc1nc3c(C(N)=O)cccc3[nH]1)C(=O)N2C` (configuration not stated), for which the half-maximal inhibitory concentration (IC50) amounted to 49 nM in series [12] and 1710 nM in the series on CAPAN-1. Besides, the Activity entry in series [13] was “Non-Toxic”; in series [14], “Non-Toxic”; with SW1990 [16] it was 33.6%; with SW1990 [17], 3.52%; with SW1990 [18], 14.98%. The inhibition result in the series with Mus musculus [15], in the series with SW1990 [19], with Mus musculus [20], in the series on Mus musculus [21] and in the series with Mus musculus [27] was “Active” throughout. Also, the result in the series on Mus musculus [22], with SW1990 [23], in the series with SW1990 [24], with SW1990 [25] and in the series with SW1990 [26] was Active.

For `O=C(c1cc(Cc2n[nH]c(=O)c3ccccc23)ccc1F)N1CCN(C(=O)C2CC2)CC1` [OLAPARIB], the outcome in the series on SW1990 [28], in the series on Mus musculus [29], in the series with Mus musculus [30], with Mus musculus [31], in the series on SW1990 [32] and in the series on SW1990 [33] was Active. Moreover, the result in the series on SW1990 [34], in the series on SW1990 [35] and in the series with Mus musculus [36] was Active.
